In patent US8017786B2, “Substituted β-phenyl-α-hydroxy-propanoic acid, synthesis method and use thereof” (Northwest University, priority 2006, dated 2011):

Test system: anesthetized rats
Assay: Blood pressure and left ventricular function of anesthetized rats
Assay type: in vivo, rat
Parameters: contractive pressure, change ratio: unit not given here
Settings: for change-rate of left intraventricular pressure MAX / change-rate of left intraventricular pressure MAX, change ratio / change-rate of left intraventricular pressure, -MAX / change-rate of left intraventricular pressure, -MAX, change ratio / contractive pressure / contractive pressure, change ratio / diastolic pressure / diastolic pressure, change ratio / heart rate / heart rate, change ratio / left intraventricular pressure / left intraventricular pressure, change ratio / mean arterial pressure / mean arterial pressure, change ratio: 4.5 mg/kg duodenal
Description: All data were input into PowerLab/8Sp data acquisition and processing system via RM-6000 multi-channel polygraph, and recorded, analyzed and processed by PowerLab/8Sp.
The abdomen was opened 1.5 cm below xiphoid bone to isolate duodenum, a small incision was formed on the duodenum away from blood vessels by ophthalmic scissors, a catheter was inserted and the incision was fixed by suture for administration. After the end of operation and a further waiting period of 30 min, normal data were recorded once the indexes to be monitored were stable.
Test drugs were duodenally administered via the catheter, and the indexes were monitored 5, 15, 30, 60, 90 and 120 min after the administration. The change ratios of the indexes were calculated in accordance with the following formula, and were used for statistic analysis among groups.

What does the source list for CC1(C)C2CCC1(C)C(OC(=O)C(O)Cc1ccc(O)c(O)c1)C2 (stereo not drawn) [bornyl salvianate ester, bornyl β-(3,4-dihydroxylphenyl)-α-hydroxylpropionate ester]?
mean arterial pressure, systolic pressure and diastolic pressure (in words) (4.5 mg/kg): exhibited no significant change; change-rate of left intraventricular pressure MAX (5 min after administration): 5429.3 ± 1279.7 mmHg/s; change-rate of left intraventricular pressure MAX, change ratio (5 min after administration): 0.4 ± 11.0; change-rate of left intraventricular pressure, -MAX (5 min after administration): −4152.9 ± 764.8 mm/Hg/s; change-rate of left intraventricular pressure, -MAX, change ratio (5 min after administration): −2.2 ± 8.2; contractive pressure (5 min after administration): 126.54 ± 25.94 mmHg; contractive pressure, change ratio (5 min after administration): −1.96 ± 11.16; diastolic pressure (5 min after administration): 68.68 ± 15.82 mmHg; diastolic pressure, change ratio (5 min after administration): −0.08 ± 12.81; heart rate (5 min after administration): 337.41 ± 47.67 beat/min; heart rate, change ratio (5 min after administration): 2.49 ± 7.18; left intraventricular pressure (5 min after administration): 128.67 ± 18.24 mmHg; left intraventricular pressure, change ratio (5 min after administration): 0.38 ± 6.72; mean arterial pressure (5 min after administration): 87.97 ± 18.89 mmHg; mean arterial pressure, change ratio (5 min after administration): −1.01 ± 11.95; change-rate of left intraventricular pressure MAX (15 min after administration): 5435.9 ± 1216.6 mmHg/s; change-rate of left intraventricular pressure MAX, change ratio (15 min after administration): 0.9 ± 11.4; change-rate of left intraventricular pressure, -MAX (15 min after administration): −4141.1 ± 755.6 mm/Hg/s; change-rate of left intraventricular pressure, -MAX, change ratio (15 min after administration): −2.4 ± 9.1; contractive pressure (15 min after administration): 128.80 ± 24.39 mmHg; contractive pressure, change ratio (15 min after administration): −0.05 ± 10.13; diastolic pressure (15 min after administration): 70.87 ± 15.08 mmHg; diastolic pressure, change ratio (15 min after administration): 3.38 ± 12.17; heart rate (15 min after administration): 347.56 ± 47.18 beat/min; heart rate, change ratio (15 min after administration): 5.67 ± 7.58; left intraventricular pressure (15 min after administration): 130.13 ± 18.12 mmHg; left intraventricular pressure, change ratio (15 min after administration): 1.51 ± 6.25; mean arterial pressure (15 min after administration): 90.18 ± 17.91 mmHg; mean arterial pressure, change ratio (15 min after administration): 1.66 ± 11.07; change-rate of left intraventricular pressure MAX (30 min after administration): 5408.8 ± 1352.2 mmHg/s; change-rate of left intraventricular pressure MAX, change ratio (30 min after administration): 0.1 ± 13.5; change-rate of left intraventricular pressure, -MAX (30 min after administration): −4090.5 ± 704.6 mm/Hg/s; change-rate of left intraventricular pressure, -MAX, change ratio (30 min after administration): −3.6 ± 6.5; contractive pressure (30 min after administration): 129.90 ± 23.86 mmHg; contractive pressure, change ratio (30 min after administration): 0.93 ± 11.47; diastolic pressure (30 min after administration): 71.78 ± 15.67 mmHg; diastolic pressure, change ratio (30 min after administration): 4.78 ± 14.39; heart rate (30 min after administration): 348.91 ± 52.11 beat/min; heart rate, change ratio (30 min after administration): 5.97 ± 9.72; left intraventricular pressure (30 min after administration): 129.67 ± 17.48 mmHg; left intraventricular pressure, change ratio (30 min after administration): 1.22 ± 7.07; mean arterial pressure (30 min after administration): 91.15 ± 17.95 mmHg; mean arterial pressure, change ratio (30 min after administration): 2.91 ± 12.81; change-rate of left intraventricular pressure MAX (60 min after administration): 5760.1 ± 1393.5 mmHg/s; change-rate of left intraventricular pressure MAX, change ratio (60 min after administration): 7.1 ± 18.3; change-rate of left intraventricular pressure, -MAX (60 min after administration): −4146.8 ± 820.5 mm/Hg/s; change-rate of left intraventricular pressure, -MAX, change ratio (60 min after administration): −2.4 ± 10.2; contractive pressure (60 min after administration): 135.97 ± 22.80 mmHg; contractive pressure, change ratio (60 min after administration): 5.64 ± 8.91; diastolic pressure (60 min after administration): 76.78 ± 14.34 mmHg; diastolic pressure, change ratio (60 min after administration): 12.13 ± 9.39; heart rate (60 min after administration): 365.43 ± 32.77 beat/min; heart rate, change ratio (60 min after administration): 12.05 ± 12.32; left intraventricular pressure (60 min after administration): 134.39 ± 19.12 mmHg; left intraventricular pressure, change ratio (60 min after administration): 4.73 ± 6.55; mean arterial pressure (60 min after administration): 96.51 ± 16.69 mmHg; mean arterial pressure, change ratio (60 min after administration): 8.95 ± 8.95; change-rate of left intraventricular pressure MAX (90 min after administration): 5706.1 ± 1390.6 mmHg/s; change-rate of left intraventricular pressure MAX, change ratio (90 min after administration): 7.6 ± 26.1; change-rate of left intraventricular pressure, -MAX (90 min after administration): −4156.0 ± 947.7 mm/Hg/s; change-rate of left intraventricular pressure, -MAX, change ratio (90 min after administration): −2.2 ± 15.9; contractive pressure (90 min after administration): 131.95 ± 25.10 mmHg; contractive pressure, change ratio (90 min after administration): 2.56 ± 13.11; diastolic pressure (90 min after administration): 74.71 ± 18.13 mmHg; diastolic pressure, change ratio (90 min after administration): 8.47 ± 17.66; heart rate (90 min after administration): 369.71 ± 35.54 beat/min; heart rate, change ratio (90 min after administration): 13.31 ± 13.05; left intraventricular pressure (90 min after administration): 130.91 ± 17.22 mmHg; left intraventricular pressure, change ratio (90 min after administration): 2.39 ± 9.41; mean arterial pressure (90 min after administration): 93.79 ± 20.11 mmHg
